Experimental data reported in paper PMC8459745 (Bioorganic & medicinal chemistry letters, 2021).

Molecular target: focal adhesion kinase (FAK) (Homo sapiens, UniProt Q05397)
Assay: FAK kinase inhibition assay
Format: biochemical

Sequence of focal adhesion kinase (FAK) (Q05397 2-1052): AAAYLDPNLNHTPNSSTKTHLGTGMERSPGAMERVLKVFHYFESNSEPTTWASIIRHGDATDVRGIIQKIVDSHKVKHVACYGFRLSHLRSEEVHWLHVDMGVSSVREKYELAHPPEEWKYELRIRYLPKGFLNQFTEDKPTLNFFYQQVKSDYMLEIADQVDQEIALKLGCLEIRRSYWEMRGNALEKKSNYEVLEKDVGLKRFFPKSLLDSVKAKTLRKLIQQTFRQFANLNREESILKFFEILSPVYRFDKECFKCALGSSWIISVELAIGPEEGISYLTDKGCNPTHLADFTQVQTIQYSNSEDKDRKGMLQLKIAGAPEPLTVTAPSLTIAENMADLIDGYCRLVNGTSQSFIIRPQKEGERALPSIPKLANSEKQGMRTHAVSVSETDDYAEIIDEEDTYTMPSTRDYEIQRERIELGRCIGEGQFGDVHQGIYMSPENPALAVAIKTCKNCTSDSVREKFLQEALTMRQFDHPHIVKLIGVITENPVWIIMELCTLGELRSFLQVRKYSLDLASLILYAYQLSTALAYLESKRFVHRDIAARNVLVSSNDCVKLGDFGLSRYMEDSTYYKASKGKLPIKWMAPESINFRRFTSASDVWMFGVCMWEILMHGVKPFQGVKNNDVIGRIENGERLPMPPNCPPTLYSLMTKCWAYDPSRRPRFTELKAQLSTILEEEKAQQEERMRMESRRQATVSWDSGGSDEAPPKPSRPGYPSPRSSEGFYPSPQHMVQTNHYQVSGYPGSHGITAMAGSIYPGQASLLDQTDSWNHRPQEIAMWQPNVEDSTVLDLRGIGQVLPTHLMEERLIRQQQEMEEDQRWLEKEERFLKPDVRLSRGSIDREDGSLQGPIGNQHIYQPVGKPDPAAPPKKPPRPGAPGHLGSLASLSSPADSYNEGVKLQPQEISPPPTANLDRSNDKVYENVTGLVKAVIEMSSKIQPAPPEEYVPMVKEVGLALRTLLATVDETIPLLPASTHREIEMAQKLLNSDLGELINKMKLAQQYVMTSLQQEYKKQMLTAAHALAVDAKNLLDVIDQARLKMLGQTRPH

CONC(=O)c1ccccc1Nc1cc(Nc2cc(C)nn2C(C)C)ncc1Cl [GSK2256098]
IC50: 22.1 nM
